Measurements from publication PMC2941766 (Molecular pharmaceutics, 2010).

Legend:
Format in all cases: in vitro ADME
UGT1A9 = target: T1, UGT1A9 (Homo sapiens, UniProt O60656); test: Glucuronidation by expressed human UGT1A9; settings: for glucuronidation rate: UGT1A9, 2.5 μM substrate, 37°C
T1 sequence (O60656 26-530): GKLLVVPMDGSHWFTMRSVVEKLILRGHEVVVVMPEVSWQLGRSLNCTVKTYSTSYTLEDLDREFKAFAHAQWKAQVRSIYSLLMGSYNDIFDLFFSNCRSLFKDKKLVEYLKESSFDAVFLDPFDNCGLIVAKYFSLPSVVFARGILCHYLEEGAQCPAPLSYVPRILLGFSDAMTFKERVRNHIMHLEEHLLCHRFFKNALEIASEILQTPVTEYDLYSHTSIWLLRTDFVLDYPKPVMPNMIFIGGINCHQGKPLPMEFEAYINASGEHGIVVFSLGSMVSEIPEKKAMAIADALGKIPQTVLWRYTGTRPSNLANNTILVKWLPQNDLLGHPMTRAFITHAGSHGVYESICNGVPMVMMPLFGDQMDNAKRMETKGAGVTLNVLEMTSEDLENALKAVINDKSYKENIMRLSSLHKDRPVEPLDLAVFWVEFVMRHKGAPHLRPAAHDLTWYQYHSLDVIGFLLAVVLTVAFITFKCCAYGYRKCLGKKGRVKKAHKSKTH

UGT1A1 = target: T2, UGT1A1 (Homo sapiens, UniProt P22309); test: Glucuronidation by expressed human UGT1A1; settings: 37°C
T2 sequence (P22309 26-533): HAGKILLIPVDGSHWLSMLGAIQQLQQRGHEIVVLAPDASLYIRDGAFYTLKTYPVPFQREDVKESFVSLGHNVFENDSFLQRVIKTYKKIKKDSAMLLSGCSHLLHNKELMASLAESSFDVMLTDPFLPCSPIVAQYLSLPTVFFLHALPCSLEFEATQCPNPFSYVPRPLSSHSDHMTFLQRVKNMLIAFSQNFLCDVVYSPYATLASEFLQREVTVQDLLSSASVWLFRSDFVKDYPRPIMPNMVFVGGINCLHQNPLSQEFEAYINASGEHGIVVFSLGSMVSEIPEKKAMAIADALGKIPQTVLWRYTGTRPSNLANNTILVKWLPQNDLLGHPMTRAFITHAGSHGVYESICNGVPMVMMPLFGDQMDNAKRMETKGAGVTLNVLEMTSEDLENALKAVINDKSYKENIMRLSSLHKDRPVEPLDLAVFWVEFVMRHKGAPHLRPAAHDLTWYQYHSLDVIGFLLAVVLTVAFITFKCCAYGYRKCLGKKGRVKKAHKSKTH

UGT1A8 = target: T3, UGT1A8 (Homo sapiens, UniProt Q9HAW9); test: Glucuronidation by expressed human UGT1A8; settings: UGT1A8, 2.5μM substrate, 37°C
T3 sequence (Q9HAW9 26-530): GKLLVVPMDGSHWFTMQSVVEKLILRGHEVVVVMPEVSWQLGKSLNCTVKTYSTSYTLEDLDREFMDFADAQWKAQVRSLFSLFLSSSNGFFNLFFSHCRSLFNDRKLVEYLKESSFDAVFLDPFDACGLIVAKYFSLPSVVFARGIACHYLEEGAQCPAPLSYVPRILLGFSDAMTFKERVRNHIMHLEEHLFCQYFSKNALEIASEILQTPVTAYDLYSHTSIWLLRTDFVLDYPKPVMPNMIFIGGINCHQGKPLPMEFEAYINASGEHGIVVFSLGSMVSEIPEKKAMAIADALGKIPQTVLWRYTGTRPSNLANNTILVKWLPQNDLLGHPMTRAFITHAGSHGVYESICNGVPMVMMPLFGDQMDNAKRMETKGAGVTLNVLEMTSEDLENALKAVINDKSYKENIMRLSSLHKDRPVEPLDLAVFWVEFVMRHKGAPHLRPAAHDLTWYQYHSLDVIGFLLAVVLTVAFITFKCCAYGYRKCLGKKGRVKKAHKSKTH

UGT1A7 = target: T4, UGT1A7 (Homo sapiens, UniProt Q9HAW7); test: Glucuronidation by expressed human UGT1A7; settings: UGT1A7, 2.5μM substrate, 37°C
T4 sequence (Q9HAW7 26-530): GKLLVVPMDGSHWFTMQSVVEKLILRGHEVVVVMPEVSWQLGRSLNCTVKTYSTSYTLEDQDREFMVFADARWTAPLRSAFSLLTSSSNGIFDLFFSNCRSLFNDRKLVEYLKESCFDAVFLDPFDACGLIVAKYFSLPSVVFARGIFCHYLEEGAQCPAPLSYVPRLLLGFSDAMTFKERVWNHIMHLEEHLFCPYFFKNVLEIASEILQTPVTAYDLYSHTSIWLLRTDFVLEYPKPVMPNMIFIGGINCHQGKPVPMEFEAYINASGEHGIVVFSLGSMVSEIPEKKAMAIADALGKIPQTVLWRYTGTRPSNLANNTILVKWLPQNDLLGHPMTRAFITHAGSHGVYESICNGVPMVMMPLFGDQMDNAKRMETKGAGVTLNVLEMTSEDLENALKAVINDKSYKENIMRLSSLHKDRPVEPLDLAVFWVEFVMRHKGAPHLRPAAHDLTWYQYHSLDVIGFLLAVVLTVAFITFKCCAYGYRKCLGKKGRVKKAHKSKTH

UGT1A10 = target: T5, UGT1A10 (Homo sapiens, UniProt Q9HAW8); test: Glucuronidation by expressed human UGT1A10; settings: UGT1A10, 10 μM substrate, 37°C
T5 sequence (Q9HAW8 26-530): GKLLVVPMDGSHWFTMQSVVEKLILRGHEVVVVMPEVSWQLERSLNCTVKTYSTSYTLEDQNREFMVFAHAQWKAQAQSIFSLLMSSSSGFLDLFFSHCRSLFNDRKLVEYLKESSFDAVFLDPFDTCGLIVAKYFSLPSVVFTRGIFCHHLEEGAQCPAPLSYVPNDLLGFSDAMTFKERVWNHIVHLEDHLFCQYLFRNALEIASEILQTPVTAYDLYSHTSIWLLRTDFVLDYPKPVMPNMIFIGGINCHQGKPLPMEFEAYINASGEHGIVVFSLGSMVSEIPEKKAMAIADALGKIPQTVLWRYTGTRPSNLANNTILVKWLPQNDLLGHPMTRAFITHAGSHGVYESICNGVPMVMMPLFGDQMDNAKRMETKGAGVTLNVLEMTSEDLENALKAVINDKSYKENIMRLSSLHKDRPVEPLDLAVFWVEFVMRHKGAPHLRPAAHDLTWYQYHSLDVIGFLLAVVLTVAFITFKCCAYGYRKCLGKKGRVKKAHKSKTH

[1] = Glucuronidation by pooled human liver microsomes; settings: human liver microsomes, 2.5μM substrate
UGT2B7 = target: T6, UGT2B7 (Homo sapiens, UniProt P16662); test: Glucuronidation by expressed human UGT2B7; settings: for substrate of UGT2B7: UGT2B7, conclusion from fingerprints; for glucuronidation rate: 37°C
T6 sequence (P16662 24-529): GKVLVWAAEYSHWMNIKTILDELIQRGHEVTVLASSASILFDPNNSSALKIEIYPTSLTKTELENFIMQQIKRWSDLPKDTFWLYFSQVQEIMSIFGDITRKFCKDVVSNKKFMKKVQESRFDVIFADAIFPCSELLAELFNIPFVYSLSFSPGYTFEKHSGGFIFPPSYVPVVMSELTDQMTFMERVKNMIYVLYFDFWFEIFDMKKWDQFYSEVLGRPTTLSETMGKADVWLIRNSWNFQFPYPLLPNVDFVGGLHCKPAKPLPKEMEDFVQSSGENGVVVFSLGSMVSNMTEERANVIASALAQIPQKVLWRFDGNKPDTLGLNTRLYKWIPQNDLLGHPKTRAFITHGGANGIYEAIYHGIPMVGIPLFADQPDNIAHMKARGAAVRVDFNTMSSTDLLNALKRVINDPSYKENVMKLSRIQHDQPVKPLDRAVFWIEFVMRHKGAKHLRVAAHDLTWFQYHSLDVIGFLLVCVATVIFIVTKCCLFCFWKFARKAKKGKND

[2] = Glucuronidation by pooled human intestinal microsomes; settings: human intestinal microsomes

| SMILES | glucuronidation rate (UGT1A9) | glucuronidation rate (UGT1A7) | glucuronidation rate (UGT1A10) | glucuronidation rate [1] | substrate of UGT2B7 (UGT2B7) | glucuronidation (detectable metabolism) (UGT1A9; UGT1A9, 35 μM substrate) | glucuronidation rate (UGT1A1; UGT1A1, 2.5μM substrate) | glucuronidation rate (UGT1A8) | glucuronidation rate (UGT1A1; UGT1A1, 10μM substrate) | glucuronidation rate (UGT1A1; UGT1A1, 35μM substrate) | glucuronidation rate (UGT2B7; UGT2B7, 2.5μM substrate) | glucuronidation rate (UGT2B7; UGT2B7, 10μM substrate) | glucuronidation rate (UGT2B7; UGT2B7, 35μM substrate) | glucuronidation rate ([2]; 2.5 μM substrate) | magnitude of the difference between fastest and slowest glucuronidation rate ([2]; 2.5 μM, 3-HF vs 5-HF) |
| --- | --- | --- | --- | --- | --- | --- | --- | --- | --- | --- | --- | --- | --- | --- | --- |
| O=c1c(O)c(-c2ccc(O)cc2)oc2ccccc12 [3,4′-diHF, 3,4′-dihydroxyflavone] |  |  |  |  | substrates |  |  |  |  |  |  |  |  |  |  |
| O=c1c(O)c(-c2ccccc2)oc2ccccc12 [3-HF, 3-hydroxyflavone] | 3.03±0.04 nmol per min per mg of protein | 8.27±0.15 nmol per min per mg of protein | 1.37±0.19 nmol per min per mg of protein | 5.04±0.48 nmol per min per mg of protein | substrates |  | 2.68 ± 0.47 nmol per min per mg of protein | 2.19 ± 0.27 nmol per min per mg of protein | 3.80±0.21 nmol per min per mg of protein | 3.85±0.12 nmol per min per mg of protein | 1.39±0.14 nmol per min per mg of protein | 5.35±0.91 nmol per min per mg of protein | 2.19±0.07 nmol per min per mg of protein | 12.35±1.32 nmol per min per mg of protein | 25 folds |
| O=c1cc(-c2cccc(O)c2)oc2ccccc12 [3′-HF, 3′-hydroxyflavone] | 0.48±0.13 nmol per min per mg of protein | 1.44±0.20 nmol per min per mg of protein | 0.86±0.08 nmol per min per mg of protein | 3.14±0.01 nmol per min per mg of protein |  |  | 1.59 ±0.26 nmol per min per mg of protein | 0.27 ±0.02 nmol per min per mg of protein |  |  |  |  |  |  |  |
| O=c1cc(-c2ccc(O)cc2)oc2ccccc12 [4′-HF, 4′-hydroxyflavone] | not detectable | 0 nmol per min per mg of protein | 0.30±0.05 nmol per min per mg of protein | 0.80±0.05 nmol per min per mg of protein |  | no detectable metabolism | 1.34 ±0.21 nmol per min per mg of protein | 0.00±0.00 nmol per min per mg of protein |  |  |  |  |  |  |  |
| O=c1cc(-c2ccccc2)oc2ccc(O)cc12 [6-HF, 6-hydroxyflavone] | 0.10±0.00 nmol per min per mg of protein | 0 nmol per min per mg of protein | 0.62±0.07 nmol per min per mg of protein | 0.91±0.04 nmol per min per mg of protein |  |  | 1.50±0.18 nmol per min per mg of protein | 0.87±0.12 nmol per min per mg of protein |  |  |  |  |  |  |  |
| O=c1cc(-c2ccccc2)oc2cc(O)ccc12 [7-HF, 7-hydroxyflavone] | 1.30±0.09 nmol per min per mg of protein | 0 nmol per min per mg of protein | 0.17±0.03 nmol per min per mg of protein | 1.39±0.01 nmol per min per mg of protein |  |  | 1.73 ±0.21 nmol per min per mg of protein | 0.23±0.03 nmol per min per mg of protein |  |  |  |  |  |  |  |

More lines, main results first:

| glucuronidation rate (UGT1A9) | glucuronidation rate (UGT1A7) | glucuronidation rate (UGT1A10) | glucuronidation rate [1] | substrate of UGT2B7 (UGT2B7) | glucuronidation (detectable metabolism) (UGT1A9; UGT1A9, 35 μM substrate) | SMILES | glucuronidation rate (UGT1A1; UGT1A1, 2.5μM substrate) | glucuronidation rate (UGT1A8) | glucuronidation rate (UGT1A1; UGT1A1, 10μM substrate) | glucuronidation rate (UGT1A1; UGT1A1, 35μM substrate) | glucuronidation rate (UGT2B7; UGT2B7, 2.5μM substrate) | glucuronidation rate (UGT2B7; UGT2B7, 10μM substrate) | glucuronidation rate (UGT2B7; UGT2B7, 35μM substrate) | glucuronidation rate ([2]; 2.5 μM substrate) | magnitude of the difference between fastest and slowest glucuronidation rate ([2]; 2.5 μM, 3-HF vs 5-HF) |
| --- | --- | --- | --- | --- | --- | --- | --- | --- | --- | --- | --- | --- | --- | --- | --- |
| 0.43±0.06 nmol per min per mg of protein | 1.13±0.11 nmol per min per mg of protein | 0.09±0.01 nmol per min per mg of protein | 0.97±0.03 nmol per min per mg of protein |  |  | O=c1cc(-c2ccccc2O)oc2ccccc12 [2′-HF, 2′-hydroxyflavone] | 1.28±0.12 nmol per min per mg of protein | 1.18±0.26 nmol per min per mg of protein |  |  |  |  |  |  |  |
|  |  |  |  | substrates |  | O=c1c(O)c(-c2ccccc2)oc2cccc(O)c12 [3,5-diHF, 3,5-dihydroxyflavone] |  |  |  |  |  |  |  |  |  |
|  |  |  |  | substrates |  | O=c1c(O)c(-c2ccccc2)oc2cc(O)ccc12 [3,7-diHF, 3,7-dihydroxyflavone] |  |  |  |  |  |  |  |  |  |
